{"source": "the supplement of paper PMC6723410", "tested_on": "GUMC-403", "experiment": "viability at highest tested concentration (max response) relative to DMSO (% of DMSO control); higher = less cytotoxic", "details": "library / dose series: MIPE library, 11-point 1:3 dilution; top concentration 46.1 µM; 48 h", "method_in_brief": "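In 1536-well plates, 700 GUMC-403 papilloma cells per well, taken from a patient and grown by conditional reprogramming, were seeded in 5 μL F + Y medium and incubated overnight at 37 °C. Compounds were pinned in at 23 nL in an 11-point 1:3 series, and left for 48 h before CellTiter-Glo luminescence was read on a ViewLux against vehicle (100%) and empty (0%) wells. Reported values are viability at the highest tested concentration relative to vehicle control.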", "data": [{"smiles": "NC/1=N/C(=O)C2=C(N1)[N](C=N2)[C@@H]3C[C@H](O)[C@@H](CO)C3=C", "values": [{"measurement": "viability", "value": 100}]}, {"smiles": "CC(=O)O[C@H]1C(=O)[C@]2(C)[C@@H](O)C[C@H]3OC[C@@]3(OC(C)=O)C2[C@H](OC(=O)C4=CC=CC=C4)[C@]5(O)C[C@H](OC(=O)[C@H](O)[C@@H](NC(=O)C6=CC=CC=C6)C7=CC=CC=C7)\\C(=C1/C5(C)C)C", "note": "(some centres undefined)", "values": [{"measurement": "viability", "value": 97.8}]}, {"smiles": "CCOC(CN1C(=O)[C@](CC(=O)Nc2ccc(C)cc2)(NC(=O)Nc2ccc(C)cc2)c2ccccc21)OCC", "values": [{"measurement": "viability", "value": 129}]}, {"smiles": "O=C(Nc1ccccc1)Nc1ccc(-c2ccc(C(=O)[C@@H]3CCC[C@H]3C(=O)O)cc2)cc1", "values": [{"measurement": "viability", "value": 128}]}, {"smiles": "CN1C(=O)COc2c(C(=O)NC3CN4CCC3CC4)cc(Cl)cc21", "note": "(centres undefined)", "values": [{"measurement": "viability", "value": 107}]}, {"smiles": "CC(C)(C)c1cc(NC(=O)Nc2ccc(-c3cn4c(n3)sc3cc(OCCN5CCOCC5)ccc34)cc2)no1", "values": [{"measurement": "viability", "value": 121}]}, {"smiles": "OC[C@H]1O[C@@H](O[C@@H]2O\\C=C(/[C@H]3C\\C=C(CO)/[C@@H]23)C(O)=O)[C@H](O)[C@@H](O)[C@@H]1O", "values": [{"measurement": "viability", "value": 124}]}, {"smiles": "OC[C@H]1O[C@@H](Oc2cc(O)cc(/C=C/c3ccc(O)cc3)c2)[C@H](O)[C@@H](O)[C@@H]1O", "values": [{"measurement": "viability", "value": 128}]}, {"smiles": "c1cc(-c2sc(-c3ccncc3)c(-c3ccncc3)c2-c2ccncc2)ccn1", "values": [{"measurement": "viability", "value": 106}]}, {"smiles": "C[C@@H]1C[C@H]2[C@@H]3CC\\C4=C\\C(=O)\\C=C/[C@]4(C)[C@@]3(Cl)[C@@H](O)C[C@]2(C)[C@@]1(OC(=O)C5=CC=CO5)C(=O)CCl", "values": [{"measurement": "viability", "value": 133}]}, {"smiles": "CN1CCN(CC1)C/2=N/C3=CC=CC=C3NC4=C2C=C(C)S4", "values": [{"measurement": "viability", "value": 117}]}, {"smiles": "COC1CCC(C(=O)c2ccc3nc4c(cc3c2)CCCO4)CC1", "note": "(centres undefined)", "values": [{"measurement": "viability", "value": 89.8}]}, {"smiles": "C[C@]12CC[C@H]3[C@@H](CCC/4=C/C(=O)CC[C@]34C)[C@@H]1CC[C@@H]2O", "values": [{"measurement": "viability", "value": 112}]}, {"smiles": "CC[C@H]1OC(=O)[C@H](C)C(=O)[C@H](C)[C@@H](O[C@H]2O[C@H](C)C[C@H](N(C)C)[C@H]2O)[C@](C)(OC)C[C@@H](C)C(=O)[C@H](C)[C@H]2N(CCCCn3cnc(-c4cccnc4)c3)C(=O)O[C@]12C", "values": [{"measurement": "viability", "value": 102}]}, {"smiles": "Cc1ccc([C@@H]2O[C@H](CO)[C@@H](O)[C@H](O)[C@H]2O)cc1Cc1ccc(-c2ccc(F)cc2)s1", "values": [{"measurement": "viability", "value": 108}]}, {"smiles": "NNCCc1ccccc1", "values": [{"measurement": "viability", "value": 109}]}, {"smiles": "COc1ccc2c(c1)c(CC(=O)O)c(C)n2C(=O)c1ccc(Cl)cc1", "values": [{"measurement": "viability", "value": 111}]}, {"smiles": "CCCCCCCCCCCCCCCC(=O)OC[C@@H](NC(=O)C(Cl)Cl)[C@H](O)c1ccc([N+](=O)[O-])cc1", "values": [{"measurement": "viability", "value": 130}]}, {"smiles": "CCCNC(=O)[C@H]1O[C@@H]1C(=O)N[C@H](C(=O)N1CCC[C@H]1C(=O)OC)C(C)CC", "note": "(some centres undefined)", "values": [{"measurement": "viability", "value": 109}]}, {"smiles": "COc1cc(F)c(C(C)C)cc1-c1ccc(C(F)(F)F)cc1CN1C(=O)O[C@H](c2cc(C(F)(F)F)cc(C(F)(F)F)c2)[C@@H]1C", "values": [{"measurement": "viability", "value": 100}]}, {"smiles": "CCC1(C)CC(=O)NC1=O", "note": "(centres undefined)", "values": [{"measurement": "viability", "value": 94.5}]}, {"smiles": "FC1=CC=C(SC/2=N/N3\\C=N/C(=O)/C(=C3/C=C2)C4=C(Cl)C=CC=C4Cl)C(=C1)F", "values": [{"measurement": "viability", "value": 108}]}, {"smiles": "CC(C)NCC(O)COc1ccc(COCCOC(C)C)cc1", "note": "(centres undefined)", "values": [{"measurement": "viability", "value": 117}]}, {"smiles": "COc1cc2nc(N3CCN(C(=O)C4COc5ccccc5O4)CC3)nc(N)c2cc1OC", "note": "(centres undefined)", "values": [{"measurement": "viability", "value": 115}]}, {"smiles": "CC(S)C(=O)NCC(=O)O", "note": "(centres undefined)", "values": [{"measurement": "viability", "value": 135}]}, {"smiles": "Cc1n[nH]c(C)c1Cc1sc2c(c1C(=O)N1C[C@H](O)CO1)c(=O)n(C)c(=O)n2CC(C)C", "values": [{"measurement": "viability", "value": 119}]}, {"smiles": "NCC/1=C/NC(=S)N1[C@H]2CCC3=C(F)C=C(F)C=C3C2", "values": [{"measurement": "viability", "value": 95.9}]}, {"smiles": "CN1CC/C(CC1)=C3\\c4ccccc4CC(=O)c2sccc23", "values": [{"measurement": "viability", "value": 97.2}]}, {"smiles": "Oc1ccc(C2CNCCc3c2cc(O)c(O)c3Cl)cc1", "note": "(centres undefined)", "values": [{"measurement": "viability", "value": 120}]}, {"smiles": "COCCOc1nc(-c2ccc(Cl)c(Cl)c2)n(-c2ccc(NC(=O)CCl)cc2)n1", "values": [{"measurement": "viability", "value": 85.8}]}, {"smiles": "CC(C)[C@H](O)C(=O)N[C@@H](C)C(=O)N[C@@H]1C(=O)N(C)CCc2ccccc21", "values": [{"measurement": "viability", "value": 84.6}]}, {"smiles": "CN(c1nccc(=O)[nH]1)C1CCN(c2nc3ccccc3n2Cc2ccc(F)cc2)CC1", "values": [{"measurement": "viability", "value": 97.4}]}, {"smiles": "C[C@@]12C[C@@]3(O)O[C@@H](O1)[C@]1(COC(=O)c4ccccc4)[C@H]3C[C@@]12O[C@@H]1O[C@H](CO)[C@@H](O)[C@H](O)[C@H]1O", "values": [{"measurement": "viability", "value": 115}]}, {"smiles": "CC[C@H]1OC(=O)[C@H](C)[C@@H](O[C@H]2C[C@@](C)(OC)[C@@H](O)[C@H](C)O2)[C@H](C)[C@@H](O[C@@H]2O[C@H](C)C[C@H](N(C)C)[C@H]2O)[C@](C)(O)C[C@@H](C)CN(C)[C@H](C)[C@@H](O)[C@]1(C)O", "values": [{"measurement": "viability", "value": 109}]}, {"smiles": "Fc1ccc(Cl)cc1-c1nc(Nc2ccncc2)c2nccnc2n1", "values": [{"measurement": "viability", "value": 128}]}, {"smiles": "CN(C1CCc2c(c3ccccc3n2CC(=O)O)C1)[S+](=O)([O-])c1ccc(F)cc1", "note": "(centres undefined)", "values": [{"measurement": "viability", "value": 114}]}, {"smiles": "OC(=O)C1=CC=C(NC2=NC3=C(C\\N=C(/C4=CC(=CC=C34)Cl)C5=C(F)C=CC=C5F)C=N2)C=C1", "values": [{"measurement": "viability", "value": 131}]}, {"smiles": "OC(Cn1cncn1)(Cn1cncn1)c1ccc(F)cc1F", "values": [{"measurement": "viability", "value": 130}]}, {"smiles": "O=[S+]([O-])(F)Cc1ccccc1", "values": [{"measurement": "viability", "value": 84.1}]}, {"smiles": "COc1ccc(-c2cc3nccn3c(Nc3ncccc3C(N)=O)n2)cc1OC", "values": [{"measurement": "viability", "value": 107}]}, {"smiles": "Oc1c(Cl)cc(Cl)c2cccnc12", "values": [{"measurement": "viability", "value": 128}]}, {"smiles": "CN[C@@H]1[C@@H](O)[C@@H](O[C@@H]2[C@@H](O)[C@H](O[C@H]3O[C@H](CN)[C@@H](O)[C@H](O)[C@H]3O)[C@@H](N)C[C@H]2NC(=O)[C@@H](O)CN)OC[C@]1(C)O", "values": [{"measurement": "viability", "value": 96.8}]}, {"smiles": "OC[C@H]1O[C@@H](OCCc2ccc(O)cc2)[C@H](O)[C@@H](O)[C@@H]1O", "values": [{"measurement": "viability", "value": 107}]}, {"smiles": "O=C(O)C1=NC(C(=O)O)CC(/C=C/N2c3cc(O)c(OC4OC(CO)C(O)C(O)C4O)cc3CC2C(=O)O)=C1", "note": "(centres undefined)", "values": [{"measurement": "viability", "value": 135}]}, {"smiles": "NC(=O)c1cccc2nc(-c3ccc([C@H]4CCCN4)cc3F)[nH]c12", "values": [{"measurement": "viability", "value": 116}]}, {"smiles": "C=C[C@H]1CN2CCC1C[C@H]2[C@H](O)c1ccnc2ccc(OC)cc12", "note": "(some centres undefined)", "values": [{"measurement": "viability", "value": 98.4}]}, {"smiles": "O=C(Nc1ccncc1)C(=O)c1cn(Cc2ccc(Cl)cc2)c2ccccc12", "values": [{"measurement": "viability", "value": 112}]}, {"smiles": "C=C1/C(=C/C=C2\\CCCC3(C)[C@@H]([C@H](C)/C=C/C=C/C(O)(CC)CC)CC[C@@H]23)C[C@@H](O)C[C@@H]1O", "note": "(some centres undefined)", "values": [{"measurement": "viability", "value": 148}]}, {"smiles": "N[C@@H](Cc1cc(I)c(Oc2cc(I)c(O)c(I)c2)c(I)c1)C(=O)O", "values": [{"measurement": "viability", "value": 123}]}, {"smiles": "C[C@H](Cc1ccc(O)c(O)c1)[C@@H](C)Cc1ccc(O)c(O)c1", "values": [{"measurement": "viability", "value": 110}]}, {"smiles": "O=c1[nH]c2ccccc2n1CCCN1CCC(n2c(=O)[nH]c3cc(Cl)ccc32)CC1", "values": [{"measurement": "viability", "value": 130}]}, {"smiles": "O=C(NCC1CCOCC1)c1cnc(Nc2ccc(Cl)cc2Cl)nc1C(F)(F)F", "values": [{"measurement": "viability", "value": 141}]}, {"smiles": "O=C(O)c1ccc2c(c1)nc(Nc1cccc(Cl)c1)c1ccncc12", "values": [{"measurement": "viability", "value": 88.1}]}, {"smiles": "CCC[S+](=O)([O-])Nc1ccc(F)c(C(=O)c2c[nH]c3ncc(Cl)cc23)c1F", "values": [{"measurement": "viability", "value": 79.1}]}, {"smiles": "C#Cc1cccc(Nc2ncnc3cc(OCCOC)c(OCCOC)cc23)c1", "values": [{"measurement": "viability", "value": 47.6}]}, {"smiles": "c1coc(CNc2ncnc3nc[nH]c23)c1", "values": [{"measurement": "viability", "value": 108}]}, {"smiles": "O=C(CCCCCCC(=O)Nc1ccccc1)NO", "values": [{"measurement": "viability", "value": 99}]}, {"smiles": "CC(C)C[C@@H](N)[C@H](O)C(=O)N[C@H](C(=O)N[C@H](C(=O)N[C@@H](CC(=O)O)C(=O)O)C(C)C)C(C)C", "values": [{"measurement": "viability", "value": 85.7}]}, {"smiles": "Cc1nnc(C(C)C)n1[C@@H]1C[C@H]2CC[C@@H](C1)N2CC[C@H](NC(=O)C1CCC(F)(F)CC1)c1ccccc1", "values": [{"measurement": "viability", "value": 140}]}]}
